From patent US20030114512A1, “Compounds with 5-ht2 and 5-ht1a agonist activity for treating glaucoma” (priority 2002, published 2003)
Like-named read-outs stand apart in the source and are kept apart here.

Tests used:
[1] = target: T1, human cloned 5-HT1A receptors (Homo sapiens, UniProt P08908); experiment: 5-HT1A receptor binding assay ([3H]8-OH-DPAT)
T1 construct: purchased NEN (manufactured by Biosignal, Inc., Montreal, Canada); host or cells: CHO cells (membranes)
T1 sequence (P08908 1-422): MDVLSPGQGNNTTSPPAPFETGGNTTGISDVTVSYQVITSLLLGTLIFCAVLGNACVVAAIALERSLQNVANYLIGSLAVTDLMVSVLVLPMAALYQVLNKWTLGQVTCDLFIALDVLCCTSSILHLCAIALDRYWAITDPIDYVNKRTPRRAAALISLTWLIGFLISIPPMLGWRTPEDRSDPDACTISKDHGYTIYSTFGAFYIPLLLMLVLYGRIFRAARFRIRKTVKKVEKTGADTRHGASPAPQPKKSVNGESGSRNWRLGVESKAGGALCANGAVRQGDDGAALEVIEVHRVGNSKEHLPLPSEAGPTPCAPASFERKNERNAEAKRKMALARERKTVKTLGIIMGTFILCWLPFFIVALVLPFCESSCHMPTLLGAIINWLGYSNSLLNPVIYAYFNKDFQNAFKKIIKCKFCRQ
Protocol: 5-HT1A Receptor Binding Assay
5-HT1A binding studies were performed with human cloned receptors expressed in Chinese hamster ovary (CHO) cells using (^3H)8-OH DPAT as the ligand. Membranes from Chinese hamster ovary cells (CHO) expressing cloned 5-HT1A receptors (manufactured for NEN by Biosignal, Inc., Montreal, Canada) were homogenized in approximately 40 volumes of 50 mM Tris pH 7.4 for 5 sec. Drug dilutions were made using a Beckman Biomek 2000 robot (Beckman Instruments, Fullerton, Calif.). Incubations were conducted with membrane prep, test compounds, and 0.25 nM [^3H]8-OH-DPAT (NEN, Boston, Mass.) in the same buffer at 27° C. for 1 h. Assays were terminated by rapid vacuum filtration over Whatman GF/B glass fiber filters pre-soaked in 0.3% polyethyleneimine. Bound radioactivity was measured using liquid scintillation spectrometry. Data were analyzed using non-linear curve fitting programs (Sharif et al., J. Pharmac. Pharmacol. 51: 685-694, 1999).
Ligand binding studies can also be run using membrane preparations from calf and rat brain (local source) and human cortex membranes. Specific brain regions were dissected out, homogenized in 10 volumes of 0.32 M sucrose and centrifuged for 10 min at 700×g. The resulting supernatant was centrifuged at 43,500×g for 10 min and the pellet re-suspended in 50 mM Tris-HCl (pH 7.7, 25° C.) using a 10 sec polytron treatment. Aliquots were stored at −140° C. To remove endogenous serotonin, the preps were incubated at 37° C. for 10 min prior to the experiment. Assay incubations were terminated by rapid filtration over Whatman GF/C filters using a Brandel cell harvester. Ki values were calculated using the Cheng-Prusoff equation (De Vry et al., J. Pharm. Exper. Ther. 284:1082-1094, 1998.)

[2] = system: intraocular pressure; experiment: IOP response in lasered (hypertensive) eyes of conscious cynomolgus monkeys; format: in vivo, cynomolgus monkey
Protocol: IOP Response in Lasered (Hypertensive) Eyes of Conscious Cynomolgus Monkeys
Intraocular pressure (IOP) was determined with an Alcon Pneumatonometer after light corneal anesthesia with 0.1% proparacaine. Eyes were washed with saline after each measurement. After a baseline IOP measurement, test compound was instilled in one 30 μL aliquot to the right eyes only of nine cynomolgus monkeys. Vehicle was instilled in the right eyes of six additional animals. Subsequent IOP measurements were taken at 1, 3, and 6 hours.

[3] = system: photooxidative induced retinopathy; experiment: Neuroprotective effects in the rat photooxidative induced retinopathy model (ERG); format: in vivo, Sprague Dawley rat; conditions: for A-wave Amplitude Mean / B-wave Amplitude Mean: ERG after five day recovery
Protocol: Neuroprotective Effects in the Rat Photooxidative Induced Retinopathy Model
Male Sprague Dawley rats were randomly assigned to vehicle treatment (saline) or drug treatment (dissolved in saline) experimental groups. α-methyl-5-hydroxytryptamine (1, 5, and 10 mg/kg) or vehicle was administered by subcutaneous (SC) injection at 48, 24, and 0 hours prior to light exposure and once 24 hours after a 6-hour light exposure to spectrally filtered blue light (˜220 fc). Control rats were housed in their home cage under normal cyclic light exposure. Rats were single housed in clear polycarbonate cages during this light exposure.
The electroretinogram (ERG) was recorded after a five day recovery period from dark-adapted anesthetized rats (Ketamine-HCl, 75 mg/Kg; Xylazine, 6 mg/Kg). The eye's electrical response to a flash of light was elicited by viewing a ganzfeld. ERGs to a series of light flashes increasing in intensity were digitized to analyze temporal characteristics of the waveform and determine the response voltage-log intensity (VlogI) relationship. Changes in the ERG a-wave are associated with photoreceptor and retinal pigment epithelium damage while damage to the inner retina is reflected in changes in the ERG b-wave.

[4] = 300 μg topical ocular, 1 hour after dose
[5] = 300 μg topical ocular, 3 hours after dose
[6] = 300 μg topical ocular, 6 hours after dose

SMILES	IC50 [1]	Percent IOP Reduction ([2]; 250 μg topical ocular, 1 hour after dose)	Percent IOP Reduction ([2]; 250 μg topical ocular, 3 hours after dose)	Percent IOP Reduction ([2]; 250 μg topical ocular, 6 hours after dose)	Maximum a- and b-wave response amplitudes compared with vehicle dosed rats ([3]; 1.0 mg/kg)	Maximum a- and b-wave response amplitudes, % of control animals ([3]; 1.0 mg/kg)	A-wave Amplitude Mean ([3]; 1.0 mg/kg SC)	B-wave Amplitude Mean ([3]; 1.0 mg/kg SC)	A-wave Amplitude Mean ([3]; 5.0 mg/kg SC)	B-wave Amplitude Mean ([3]; 5.0 mg/kg SC)	A-wave Amplitude Mean ([3]; 10.0 mg/kg SC)	B-wave Amplitude Mean ([3]; 10.0 mg/kg SC)	Protection of retina function against photo-oxidative induced retinopathy ([3]; 1, 5 and 10 mg/kg SC)	Maximum a- and b-wave response amplitudes compared with vehicle dosed rats ([3]; 5 and 10 mg/kg)	Maximum a-wave response amplitude, % of control animals ([3]; 5 and 10 mg/kg, first of 'respectively' values)	Maximum b-wave response amplitude, % of control animals ([3]; 5 and 10 mg/kg, second of 'respectively' values)	IC50 ([1]; [3H]8-OH-DPAT, CHO cell membranes, read-out: IC50, nM (SEM) 5-HT1A receptor binding)	Percent IOP Reduction [2, 4]	Percent IOP Reduction [2, 5]	Percent IOP Reduction [2, 6]
CC(N)Cc1c[nH]c2ccc(O)cc12.O=C(O)/C=C\C(=O)O (stereo not drawn) [α-Methyl 5-hydroxytryptamine maleate, 3-(2-aminopropyl)-1H-indol-5-ol]	22.5 nM	14.2%	25.8%	30.8%	not significantly different than vehicle dosed rats	approximately 30%	237.8 μV	555 μV	471.93 μV	1123 μV	477.7 μV	1126 μV	dose-dependent protection of outer and inner retina function	significantly higher than responses measured in vehicle dosed rats	approximately 58%	~62%				
CC(N)Cn1ccc2ccc(O)cc21.O=C(O)/C=C/C(=O)O (stereo not drawn) [1-(2-aminopropyl) 6-hydroxyindole fumarate]																	111 nM	19.1%	30.1%	27%
COc1ccc2[nH]cc(CC(C)N)c2c1.O=C(O)/C=C/C(=O)O (stereo not drawn) [α-Methyl 5-methoxytryptamine fumarate]	26.5 nM																	14%	23.5%	22.6%
